Experiments:
B16F10 syngeneic model = test: B16F10 syngeneic model; assay type: in vivo; conditions: C57BL/6J mice, HDAC inhibitors by oral gavage, anti-PD-L1 intraperitoneal, 7-day treatment
Description: With the approval of the ethics committee of Shandong University, C57BL/6J mice were purchased from Charles River and fed in SPF conditions at the Model Animal Research Centre of Shandong University. To establish the B16F10 syngeneic model, cells in logarithmic growth phase were trypsinized with 0.25% trypsin, resuspended in sterile PBS, and adjusted to 1 × 10^6 cells/100 µL. The cell suspension (100 µL) was subcutaneously injected into the left axilla. When tumors reached to certain volume, mice were randomized (n = 5/group) and treated with Chidamide, LBH‐589, or SDFZ‐8 by oral gavage and intraperitoneal injection of anti‐PD‐L1. Tumor growth curves were plotted over a 7‐day treatment cycle. All procedures complied with AAALAC International guidelines for humane endpoint criteria.

MDA-MB-231 xenograft = MDA-MB-231 xenograft model; assay type: in vivo, BALB/c-nu mice; conditions: MDA-MB-231 xenograft, BALB/c-nu mice, 60 mg/kg/day oral gavage, 22 days
Description: BALB/c‐nu mice were obtained from Pengyue Co. Ltd. (Jinan, China) and were fed in laminar flow cabinets under specific pathogen‐free (SPF) conditions. With the approval of ethics committee of Shandong University, the animal experiments were conducted. To establish the MDA‐MB‐231 xenograft model, BALB/c‐nu mice (3–4 weeks old and 15–18 g body weight, male) were selected and injected subcutaneously into the armpits with 1.2 × 10^7 MDA‐MB‐231 cells. […] Body weight and tumor size were measured every 3 days during the 22‐day treatment.

HDAC3/NCOR1 complex = test: HDACs enzymatic assay HDAC3; assay type: biochemical; conditions: Class I; mean ± SD of three
Description: HDACs enzymatic assays were conducted according to our previous work. […] Substrates (Boc‐Lys(acetyl)‐AMC for HeLa nuclear extract, Ac‐Leu‐Gly‐Lys (Tfa)‐AMC for HDAC4, HDAC5, HDAC6, HDAC7, HDAC9, HDAC10, and HDAC11, Boc‐Lys(triflouroacetyl)‐AMC for HDAC8 and Ac‐Leu‐Gly‐Lys(acetyl)‐AMC for HDAC1, HDAC2, HDAC3) were added to the mixture. The blank group was set to no enzyme or drug but contains substrates and the control group was set to no drug but contains substrates and enzymes to each 96‐well plate. After 30 min of incubation at 37°C, the mixture was terminated with 1 mg/mL trypsin and 3 µM TSA. After another 30 min, the fluorescence intensity was measured using a Varioskan plate reader at 360/460 nm. […] The inhibition curves and IC50 values were simulated and calculated using the log(inhibitor) versus response (three parameters) mode in GraphPad Prism software.

MC38 syngeneic model = test: MC38 syngeneic model; assay type: in vivo; conditions: C57BL/6J mice, SDFZ-8 60 mg/kg qd i.g., 14-day treatment
Description: C57BL/6J mice were obtained from HFK Bioscience (Beijing, China) and fed in laminar flow cabinets under SPF conditions. With the approval of the ethics committee of Shandong University, the animal experiments were conducted. […]. By the time tumors reached certain volumes, SDFZ‐8 treatment (SDFZ‐8 in PBS solution containing 5% DMSO, 60 mg/kg, qd, i.g.) was started, with five animals per treatment group. Body weight and tumor size were measured every day during the 14‐day treatment.

MDA-MB-231 cells = test: Western blotting (immunoblotting); assay type: cell-based, human; conditions: 24 h, western blotting
Text: Anti‐H3 (#13998), anticleaved Caspase‐3 (#9661) and anti‐PARP (#9542) antibody was purchased from Cell Signal Technology (CST). Anti‐Caspase‐3 (T40044) was brought from Abmart. Antitubulin antibody (ab179484) was obtained from Abcam PLC. Anti‐Bcl‐2 (F0125) and anti‐Bax (F0037) antibody were purchased from Selleck Chemicals. Anti‐GAPDH antibody (AF1186) was obtained from Beyotime Inc. The protocol of Western blotting was the same as our previous works. In brief, 2.5 × 10^5 MDA‐MB‐231 cells were treated with different drugs or DMSO (equal volume to experimental groups) for 24 h and lysed with modified RIPA buffer. The cell lysates were added to loading buffer (Beyotime #P0015L) and heated in boiling water for 5 mins and then, together with biomarker (Epizymebiotech; 15–250 kDa), were electrophoresed in SDS‐PAGE gels under 80 V voltage until the biomarker reached the end of gels. Next, SDS‐PAGE gels and PVDF membrane were clipped together to perform transmembrane procedure under 350 mA currency for 1 h. Then after incubation with 5% skim milk, TBST, primary antibody and secondary antibody, the PVDF membrane was treated with ECL chemiluminescence solution (Boster Biological Technology #AR1174) and imaged by the imager (Imager 680 Amersham Imager).

[1] = tested on: immune cells of MC38 syngeneic model; test: Flow cytometry of tumor-infiltrating and spleen immune cells, MC38 model; assay type: in vivo, C57BL/6J mice
Description: After 14 days, the tumors and spleens were split, and cells were isolated to analyze the change in cancer immunity. For TILs, the tumors were incubated with the tumor digestion fluid (collagenase and hyaluronic acid included) and then filtered with a 200‐gauge mesh and centrifuged (100×g, 1 min). The supernatant was centrifuged (400×g, 5 min) and precipitated cells were purified by 40% percoll solution followed by RBC lysis and washing. For splenocytes, the spleen was passed through a 200‐gauge mesh, and splenocytes were collected after RBC lysis and washing.
The prepared cell suspensions were incubated with rat serum at room temperature for 30 min to block the FC‐receptor and incubated with fluorescent antibodies at 4°C for 1 h. For Foxp3 staining, Foxp3/Transcription Factor Staining Buffer Set (eBioscience; #00‐5523‐00) was used. For intracellular cytokines staining, cells were pre‐stimulated with 1 µg/mL ionomycin (Beyotime; #S1672), 50 ng/mL PMA (Sigma; #P1585) and Brefeldin A (BioLegend; #420601) for 4 h. Flow cytometry was conducted with FACS Celesta (BD Biosciences, USA) and analyzed with FlowJo software.

Compound: Nc1cc(F)ccc1NC(=O)c1ccc(CNC(=O)/C=C/c2cccnc2)cc1 [Chidamide, reference compound]
- TGI (B16F10 syngeneic model): 58%

Compound: atezolizumab [anti-PD-L1]
- TGI (B16F10 syngeneic model): 62%

Compound: O=C(CCCCCCC(=O)Nc1ccccc1)NO [SAHA, Vorinostat, reference compound]
- TGI (MDA-MB-231 xenograft): 60%
- IC50 (HDAC3/NCOR1 complex): 45 ± 20 nM
- TGI (MC38 syngeneic model): 50%
- level of acetylated histone H3 (Ac-H3) (MDA-MB-231 cells): upregulation
- level of acetylated tubulin (Ac-tubulin) (MDA-MB-231 cells): upregulation
- PD-L1 and PD-1 expression in tumor-infiltrating immune cells [1]: upregulated
- surface expression of MHC class II in DCs and macrophages [1]: only impacted MHC II in DCs
- M2 polarization of TAMs ([1]; CD206 marker): suppressed
- M1 polarization of TAMs ([1]; iNOS marker): robustly promoted
- PD-1 expression in spleen CD4+ T cells and NK cells ([1]; spleen): downregulated
- PD-L1 expression in spleen DCs and macrophages ([1]; spleen): upregulated
- proportion of CD4+ T cells, CD8+ T cells and NK cells in the spleen ([1]; spleen): did not induce such effects
- expression of IFN-γ and TNF-α in CD4+ T cells and CD8+ T cells ([1]; tumor): upregulation

Compound: Cc1[nH]c2ccccc2c1CCNCc1ccc(/C=C/C(=O)NO)cc1 [LBH-589, reference compound]
- TGI (B16F10 syngeneic model): 53%
